Assay results reported in the supplement of paper PMC10307832.

How the values were obtained:
Assay in all cases: relative viability (nuclei count vs DMSO), 5 days (fraction); higher = more cells survive
Imatinib + Foretinib = compound: Cc1ccc(NC(=O)c2ccc(CN3CCN(C)CC3)cc2)cc1Nc1nccc(-c2cccnc2)n1 [Imatinib] + COc1cc2c(Oc3ccc(NC(=O)C4(C(=O)Nc5ccc(F)cc5)CC4)cc3F)ccnc2cc1OCCCN1CCOCC1 [Foretinib] (partner 0.25 µM)
Procedure, shortened: (§1)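 Five library-drug doses in √10 steps were combined with a fixed anchor-drug dose, or a single drug was given alone, by pin tool to lung cancer cell lines in 1536-well plates the day after seeding. Nuclei were stained and counted after 5 days. Relative viability is the nuclei count in treated wells over that in vehicle wells, taken as the median of duplicate plates.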

Imatinib + Olaparib = compound: Cc1ccc(NC(=O)c2ccc(CN3CCN(C)CC3)cc2)cc1Nc1nccc(-c2cccnc2)n1 [Imatinib] + O=C(c1cc(Cc2n[nH]c(=O)c3ccccc23)ccc1F)N1CCN(C(=O)C2CC2)CC1 [Olaparib] (partner 8 µM)
Procedure, shortened: as §1

Imatinib = compound: Cc1ccc(NC(=O)c2ccc(CN3CCN(C)CC3)cc2)cc1Nc1nccc(-c2cccnc2)n1 [Imatinib]
Procedure, shortened: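 Viability is treated-well nuclei as a fraction of vehicle-well nuclei, reported as the median across plates. Before counting, lung cancer cell lines were kept overnight at 37 °C in 1536-well plates, pinned with five √10-spaced library-drug doses on vehicle-anchored plates, and left 5 days without medium change, then fixed, permeabilised and Hoechst-stained in one step, imaged at 4× and counted by MetaXpress. A plate passed only if control CV was below 25% and at least one doubling occurred.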

Imatinib + Pemetrexed = compound: Cc1ccc(NC(=O)c2ccc(CN3CCN(C)CC3)cc2)cc1Nc1nccc(-c2cccnc2)n1 [Imatinib] + Nc1nc2[nH]cc(CCc3ccc(C(=O)N[C@@H](CCC(=O)O)C(=O)O)cc3)c2c(=O)[nH]1 [Pemetrexed] (partner 0.2 µM)
Procedure, shortened: as §1

Cell Line: EBC-1
- relative viability (Imatinib + Foretinib; first compound 0.02 µM): 0.114
- relative viability (Imatinib + Foretinib; first compound 0.06325 µM): 0.108
- relative viability (Imatinib + Foretinib; first compound 0.2 µM): 0.109
- relative viability (Imatinib + Foretinib; first compound 0.6325 µM): 0.0904
- relative viability (Imatinib + Foretinib; first compound 2 µM): 0.0924
- relative viability (Imatinib + Olaparib; first compound 0.02 µM): 0.776
- relative viability (Imatinib + Olaparib; first compound 0.06325 µM): 0.719
- relative viability (Imatinib + Olaparib; first compound 0.2 µM): 0.728
- relative viability (Imatinib + Olaparib; first compound 0.6325 µM): 0.68
- relative viability (Imatinib + Olaparib; first compound 2 µM): 0.573
- relative viability (Imatinib; 0.02 µM): 1.13
- relative viability (Imatinib; 0.06325 µM): 0.878
- relative viability (Imatinib; 0.2 µM): 1.17
- relative viability (Imatinib; 0.6325 µM): 1.02

Cell Line: NCI-H727
- relative viability (Imatinib + Foretinib; first compound 0.02 µM): 0.969
- relative viability (Imatinib + Foretinib; first compound 0.06325 µM): 0.898
- relative viability (Imatinib + Foretinib; first compound 0.2 µM): 0.891
- relative viability (Imatinib + Foretinib; first compound 0.6325 µM): 0.712
- relative viability (Imatinib + Foretinib; first compound 2 µM): 0.834
- relative viability (Imatinib + Olaparib; first compound 0.02 µM): 0.644
- relative viability (Imatinib + Olaparib; first compound 0.2 µM): 0.696
- relative viability (Imatinib + Olaparib; first compound 0.6325 µM): 0.712
- relative viability (Imatinib + Olaparib; first compound 2 µM): 0.664
- relative viability (Imatinib; 0.02 µM): 0.818
- relative viability (Imatinib; 0.06325 µM): 0.676
- relative viability (Imatinib; 0.2 µM): 0.957
- relative viability (Imatinib; 0.6325 µM): 1.08
- relative viability (Imatinib; 2 µM): 0.938

Cell Line: Calu-6
- relative viability (Imatinib + Foretinib; first compound 0.02 µM): 1.08
- relative viability (Imatinib + Foretinib; first compound 0.06325 µM): 1.01
- relative viability (Imatinib + Foretinib; first compound 0.2 µM): 1.01
- relative viability (Imatinib + Foretinib; first compound 0.6325 µM): 0.925
- relative viability (Imatinib + Foretinib; first compound 2 µM): 0.891
- relative viability (Imatinib + Olaparib; first compound 0.02 µM): 0.658
- relative viability (Imatinib + Olaparib; first compound 0.06325 µM): 0.628
- relative viability (Imatinib + Olaparib; first compound 0.2 µM): 0.673
- relative viability (Imatinib + Olaparib; first compound 0.6325 µM): 0.575
- relative viability (Imatinib + Olaparib; first compound 2 µM): 0.549
- relative viability (Imatinib; 0.02 µM): 1.08
- relative viability (Imatinib; 0.06325 µM): 1.08
- relative viability (Imatinib; 0.2 µM): 1.16
- relative viability (Imatinib; 0.6325 µM): 1.06
- relative viability (Imatinib; 2 µM): 1.02

Cell Line: LOU-NH91
- relative viability (Imatinib + Foretinib; first compound 0.02 µM): 0.943
- relative viability (Imatinib + Foretinib; first compound 0.06325 µM): 0.923
- relative viability (Imatinib + Foretinib; first compound 0.2 µM): 0.891
- relative viability (Imatinib + Foretinib; first compound 0.6325 µM): 0.929
- relative viability (Imatinib + Foretinib; first compound 2 µM): 0.879
- relative viability (Imatinib + Olaparib; first compound 0.02 µM): 1.04
- relative viability (Imatinib + Olaparib; first compound 0.06325 µM): 0.982
- relative viability (Imatinib + Olaparib; first compound 0.6325 µM): 0.879
- relative viability (Imatinib + Olaparib; first compound 2 µM): 0.894
- relative viability (Imatinib + Pemetrexed; first compound 0.02 µM): 0.361
- relative viability (Imatinib + Pemetrexed; first compound 0.06325 µM): 0.385
- relative viability (Imatinib + Pemetrexed; first compound 0.2 µM): 0.381
- relative viability (Imatinib + Pemetrexed; first compound 0.6325 µM): 0.405
- relative viability (Imatinib + Pemetrexed; first compound 2 µM): 0.395
- relative viability (Imatinib; 0.02 µM): 0.968
- relative viability (Imatinib; 0.06325 µM): 1.09
- relative viability (Imatinib; 0.2 µM): 0.966
- relative viability (Imatinib; 0.6325 µM): 0.964
- relative viability (Imatinib; 2 µM): 0.874

Cell Line: NCI-H1993
- relative viability (Imatinib + Foretinib; first compound 0.02 µM): 0.817
- relative viability (Imatinib + Foretinib; first compound 0.06325 µM): 0.886
- relative viability (Imatinib + Foretinib; first compound 0.2 µM): 0.783
- relative viability (Imatinib + Foretinib; first compound 0.6325 µM): 0.705
- relative viability (Imatinib + Foretinib; first compound 2 µM): 0.756
- relative viability (Imatinib + Olaparib; first compound 0.02 µM): 1.15
- relative viability (Imatinib + Olaparib; first compound 0.06325 µM): 1.04
- relative viability (Imatinib + Olaparib; first compound 0.2 µM): 1.16
- relative viability (Imatinib + Olaparib; first compound 0.6325 µM): 0.968
- relative viability (Imatinib + Olaparib; first compound 2 µM): 0.983
- relative viability (Imatinib + Pemetrexed; first compound 0.02 µM): 0.581
- relative viability (Imatinib + Pemetrexed; first compound 0.06325 µM): 0.44
- relative viability (Imatinib + Pemetrexed; first compound 0.2 µM): 0.501
- relative viability (Imatinib + Pemetrexed; first compound 0.6325 µM): 0.616
- relative viability (Imatinib + Pemetrexed; first compound 2 µM): 0.582
- relative viability (Imatinib; 0.02 µM): 0.89
- relative viability (Imatinib; 0.06325 µM): 0.8
- relative viability (Imatinib; 0.2 µM): 1.08
- relative viability (Imatinib; 0.6325 µM): 0.886
- relative viability (Imatinib; 2 µM): 0.925

Cell Line: NCI-H322M
- relative viability (Imatinib + Foretinib; first compound 0.02 µM): 1.09
- relative viability (Imatinib + Foretinib; first compound 0.06325 µM): 1.03
- relative viability (Imatinib + Foretinib; first compound 0.2 µM): 1.01
- relative viability (Imatinib + Foretinib; first compound 0.6325 µM): 0.883
- relative viability (Imatinib + Foretinib; first compound 2 µM): 0.935
- relative viability (Imatinib + Olaparib; first compound 0.02 µM): 0.821
- relative viability (Imatinib + Olaparib; first compound 0.06325 µM): 0.857
- relative viability (Imatinib + Olaparib; first compound 0.2 µM): 0.734
- relative viability (Imatinib + Olaparib; first compound 0.6325 µM): 0.678
- relative viability (Imatinib + Olaparib; first compound 2 µM): 0.807
- relative viability (Imatinib + Pemetrexed; first compound 0.02 µM): 0.677
- relative viability (Imatinib + Pemetrexed; first compound 0.06325 µM): 0.613
- relative viability (Imatinib + Pemetrexed; first compound 0.2 µM): 0.63
- relative viability (Imatinib + Pemetrexed; first compound 0.6325 µM): 0.563
- relative viability (Imatinib + Pemetrexed; first compound 2 µM): 0.63
- relative viability (Imatinib; 0.02 µM): 0.988
- relative viability (Imatinib; 0.06325 µM): 1.05
- relative viability (Imatinib; 0.2 µM): 0.99
- relative viability (Imatinib; 0.6325 µM): 0.831
- relative viability (Imatinib; 2 µM): 0.944

Cell Line: NCI-H2347
- relative viability (Imatinib + Foretinib; first compound 0.2 µM): 0.905
- relative viability (Imatinib + Foretinib; first compound 0.6325 µM): 0.703
- relative viability (Imatinib + Foretinib; first compound 2 µM): 1.1
- relative viability (Imatinib + Olaparib; first compound 0.02 µM): 0.551
- relative viability (Imatinib + Olaparib; first compound 0.2 µM): 0.614
- relative viability (Imatinib + Olaparib; first compound 0.6325 µM): 0.587
- relative viability (Imatinib + Olaparib; first compound 2 µM): 0.479
- relative viability (Imatinib + Pemetrexed; first compound 0.02 µM): 0.371
- relative viability (Imatinib + Pemetrexed; first compound 0.06325 µM): 0.44
- relative viability (Imatinib + Pemetrexed; first compound 0.2 µM): 0.416
- relative viability (Imatinib + Pemetrexed; first compound 0.6325 µM): 0.467
- relative viability (Imatinib + Pemetrexed; first compound 2 µM): 0.416
- relative viability (Imatinib; 0.02 µM): 1.09
- relative viability (Imatinib; 0.06325 µM): 0.825
- relative viability (Imatinib; 0.2 µM): 1.13
- relative viability (Imatinib; 0.6325 µM): 1.07
- relative viability (Imatinib; 2 µM): 0.977

Cell Line: NCI-H1437
- relative viability (Imatinib + Foretinib; first compound 0.02 µM): 1.37
- relative viability (Imatinib + Foretinib; first compound 0.06325 µM): 1.26
- relative viability (Imatinib + Foretinib; first compound 0.2 µM): 1.33
- relative viability (Imatinib + Foretinib; first compound 0.6325 µM): 1.22
- relative viability (Imatinib + Foretinib; first compound 2 µM): 1.24
- relative viability (Imatinib + Olaparib; first compound 0.02 µM): 0.692
- relative viability (Imatinib + Olaparib; first compound 0.06325 µM): 0.703
- relative viability (Imatinib + Olaparib; first compound 0.2 µM): 0.719
- relative viability (Imatinib + Olaparib; first compound 0.6325 µM): 0.686
- relative viability (Imatinib + Olaparib; first compound 2 µM): 0.604
- relative viability (Imatinib + Pemetrexed; first compound 0.02 µM): 0.318
- relative viability (Imatinib + Pemetrexed; first compound 0.06325 µM): 0.354
- relative viability (Imatinib + Pemetrexed; first compound 0.2 µM): 0.374
- relative viability (Imatinib + Pemetrexed; first compound 0.6325 µM): 0.33
- relative viability (Imatinib + Pemetrexed; first compound 2 µM): 0.279
- relative viability (Imatinib; 0.02 µM): 1.11
- relative viability (Imatinib; 0.2 µM): 1.12
- relative viability (Imatinib; 0.6325 µM): 1.04
- relative viability (Imatinib; 2 µM): 0.957

Cell Line: HCC-44
- relative viability (Imatinib + Olaparib; first compound 0.02 µM): 0.956
- relative viability (Imatinib + Olaparib; first compound 0.6325 µM): 1.02
- relative viability (Imatinib + Olaparib; first compound 2 µM): 0.967
- relative viability (Imatinib + Pemetrexed; first compound 0.02 µM): 0.653
- relative viability (Imatinib + Pemetrexed; first compound 0.2 µM): 0.68
- relative viability (Imatinib + Pemetrexed; first compound 0.6325 µM): 0.671
- relative viability (Imatinib + Pemetrexed; first compound 2 µM): 0.544
- relative viability (Imatinib; 0.02 µM): 0.998
- relative viability (Imatinib; 0.06325 µM): 0.945
- relative viability (Imatinib; 0.2 µM): 1.12
- relative viability (Imatinib; 2 µM): 0.893
